# Experimental data: article PMC3994528, “GE23077 binds to the RNA polymerase ‘i’ and ‘i+1’ sites and prevents the binding of initiating nucleotides” (eLife, 2014)
# Legend:
# S. pyogenes = assay: Resistance levels, chromosomal GE^R mutants, broth microdilution; format: cell-based, Streptococcus pyogenes
# [Lys684]β-RNAP [1] = target: T1, [Lys684]β-RNAP (Escherichia coli, UniProt P0A8T7+P0A8V2, N684K); assay: biochemical; settings: GE-resistant RNAP [Lys684]β-RNAP
# [2] = target: T2, E. coli RNAP holoenzyme ([F^517]σ^70-RNAP holoenzyme) (Escherichia coli, UniProt P0A8T7+P0A8V2); assay: Fluorescence-detected RNAP-Rif interaction assay; format: binding
# T2 construct: made in house
# Experimental: (§1) RNAP-Rif interaction assays were performed as in [Feklistov et al. (2008)]. The assays monitored the quenching of the fluorescence emission of fluorescein incorporated into RNAP holoenzyme at σ^70 residue 517 (serving as a fluorescence-resonance-energy-transfer donor) by the naphthyl moiety of Rif (serving as a fluorescence-resonance-energy-transfer acceptor; [Knight et al., 2005]; [Feklistov et al., 2008]). Fluorescence measurements were performed using a QuantaMaster QM1 spectrofluorometer (PTI, Edison, NJ) (excitation wavelength = 480 nm; emission wavelength = 530 nm; and excitation and emission slit widths = 5 nm).
# For determination of association kinetics, 720 μl 2 nM [F^517]σ^70-RNAP holoenzyme and 0-2 μM GE in 40 mM Tris–HCl, pH 8.0, 100 mM NaCl, 10 mM MgCl2, 1 mM DTT, 0.02% Tween-20, and 5% glycerol was incubated 15 min at 24°C and then mixed with 30 μl 0.01–0.5 μM Rif in the same buffer at 24°C in a cuvette chamber with a mixing dead time ∼0.5 s, and fluorescence emission intensities were monitored for 30 min at 24°C. On-rates for RNAP-Rif interaction, kon, were calculated by fitting data to: I=(I0−I∞)exp(−kobst)+I∞ where kobs is the observed association rate constant at a specified Rif concentration, I is the fluorescence emission intensity at time t, Io is the fluorescence emission intensity at t = 0, and I∞ is the fluorescence emission intensity at t = ∞; followed by fitting the Rif-concentration-dependence of kobs to: kobs=kon[Rif]+koff where koff is ≥0 but is otherwise unconstrained.
# Off-rates for RNAP-Rif interaction, koff, were calculated as: I=I0+(I∞−I0)[1−exp(−kofft)] where I is the fluorescence emission intensity at time t, Io is the fluorescence intensity at t = 0, and I∞ is the fluorescence intensity at t = ∞.
# Equilibrium dissociation constants for RNAP-Rif interaction, Kd, were calculated as koff/kon.
# (§2) The equilibrium dissociation constant for RNAP-GE interaction, Ki, was calculated from the association-kinetics data, by fitting the GE-concentration-dependence of I∞ to: I∞=(I∞,max[GE])/(Ki+[GE])
# [3] = target: T3, Thermus thermophilus RNAP (Thermus thermophilus, UniProt Q8RQE8+Q8RQE9); assay: biochemical
# T3 construct: made in house
# T3 sequence (Q8RQE8 whole entry): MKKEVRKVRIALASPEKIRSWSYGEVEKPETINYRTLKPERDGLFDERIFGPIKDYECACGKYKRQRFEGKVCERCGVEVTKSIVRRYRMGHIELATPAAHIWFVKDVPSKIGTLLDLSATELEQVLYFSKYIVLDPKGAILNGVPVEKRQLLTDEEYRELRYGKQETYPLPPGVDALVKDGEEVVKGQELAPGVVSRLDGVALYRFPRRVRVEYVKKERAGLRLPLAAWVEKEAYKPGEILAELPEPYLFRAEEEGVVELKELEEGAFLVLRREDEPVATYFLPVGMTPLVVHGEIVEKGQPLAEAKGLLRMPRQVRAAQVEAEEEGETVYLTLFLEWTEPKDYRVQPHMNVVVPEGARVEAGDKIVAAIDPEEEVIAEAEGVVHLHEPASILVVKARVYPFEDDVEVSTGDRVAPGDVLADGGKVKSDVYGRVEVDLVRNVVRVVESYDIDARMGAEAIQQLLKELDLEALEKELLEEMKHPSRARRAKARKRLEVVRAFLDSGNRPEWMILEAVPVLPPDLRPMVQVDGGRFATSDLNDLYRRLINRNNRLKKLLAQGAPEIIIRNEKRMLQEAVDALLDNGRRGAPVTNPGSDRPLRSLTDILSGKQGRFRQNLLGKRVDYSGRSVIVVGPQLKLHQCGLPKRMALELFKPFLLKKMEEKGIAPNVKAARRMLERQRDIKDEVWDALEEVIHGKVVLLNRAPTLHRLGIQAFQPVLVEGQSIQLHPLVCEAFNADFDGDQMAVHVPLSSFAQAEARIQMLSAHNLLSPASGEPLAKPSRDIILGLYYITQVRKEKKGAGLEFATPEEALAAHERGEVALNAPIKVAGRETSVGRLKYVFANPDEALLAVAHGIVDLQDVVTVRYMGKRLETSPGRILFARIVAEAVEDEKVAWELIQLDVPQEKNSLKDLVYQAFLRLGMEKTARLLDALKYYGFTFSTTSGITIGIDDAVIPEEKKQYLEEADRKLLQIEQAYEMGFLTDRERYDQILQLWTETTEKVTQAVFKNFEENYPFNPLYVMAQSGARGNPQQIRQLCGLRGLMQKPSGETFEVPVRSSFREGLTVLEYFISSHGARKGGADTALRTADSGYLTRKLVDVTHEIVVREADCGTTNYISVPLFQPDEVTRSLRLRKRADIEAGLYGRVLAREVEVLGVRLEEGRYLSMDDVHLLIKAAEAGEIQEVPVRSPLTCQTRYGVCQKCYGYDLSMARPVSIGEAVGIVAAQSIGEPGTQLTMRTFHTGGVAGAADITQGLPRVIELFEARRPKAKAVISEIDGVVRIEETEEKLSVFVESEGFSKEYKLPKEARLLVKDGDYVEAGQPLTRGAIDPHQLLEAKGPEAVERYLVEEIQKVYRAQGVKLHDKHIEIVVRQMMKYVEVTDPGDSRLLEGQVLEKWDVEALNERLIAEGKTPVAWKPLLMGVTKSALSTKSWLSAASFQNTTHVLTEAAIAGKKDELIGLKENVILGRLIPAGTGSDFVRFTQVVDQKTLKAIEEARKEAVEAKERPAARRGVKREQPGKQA
# T3 sequence (Q8RQE9 whole entry): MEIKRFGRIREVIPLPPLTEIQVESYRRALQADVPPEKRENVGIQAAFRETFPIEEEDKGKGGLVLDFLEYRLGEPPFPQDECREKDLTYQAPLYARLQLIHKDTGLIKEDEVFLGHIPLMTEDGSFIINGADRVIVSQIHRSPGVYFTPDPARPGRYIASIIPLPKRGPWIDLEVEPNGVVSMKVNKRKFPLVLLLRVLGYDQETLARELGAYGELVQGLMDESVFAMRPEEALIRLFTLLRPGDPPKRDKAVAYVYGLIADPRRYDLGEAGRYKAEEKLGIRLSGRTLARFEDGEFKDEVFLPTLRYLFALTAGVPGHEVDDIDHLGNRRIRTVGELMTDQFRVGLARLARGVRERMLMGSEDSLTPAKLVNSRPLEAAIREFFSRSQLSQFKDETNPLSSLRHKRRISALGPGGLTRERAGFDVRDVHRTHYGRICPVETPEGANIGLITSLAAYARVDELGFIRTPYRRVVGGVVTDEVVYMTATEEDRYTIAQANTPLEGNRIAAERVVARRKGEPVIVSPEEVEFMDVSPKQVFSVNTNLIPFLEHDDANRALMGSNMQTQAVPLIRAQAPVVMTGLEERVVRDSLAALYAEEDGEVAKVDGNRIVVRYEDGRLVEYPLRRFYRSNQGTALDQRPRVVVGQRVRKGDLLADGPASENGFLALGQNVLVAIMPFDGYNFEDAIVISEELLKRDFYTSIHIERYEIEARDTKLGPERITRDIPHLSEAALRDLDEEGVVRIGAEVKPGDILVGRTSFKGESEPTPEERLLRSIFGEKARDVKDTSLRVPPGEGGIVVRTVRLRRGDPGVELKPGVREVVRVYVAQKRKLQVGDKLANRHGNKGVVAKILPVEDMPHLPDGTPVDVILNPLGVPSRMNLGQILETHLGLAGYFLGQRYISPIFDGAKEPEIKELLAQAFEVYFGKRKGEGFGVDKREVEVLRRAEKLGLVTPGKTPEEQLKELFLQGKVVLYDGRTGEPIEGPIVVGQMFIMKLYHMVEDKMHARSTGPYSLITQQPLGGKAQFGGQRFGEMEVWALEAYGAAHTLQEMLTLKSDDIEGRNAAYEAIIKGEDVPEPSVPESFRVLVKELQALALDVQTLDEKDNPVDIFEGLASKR
# [4] = target: T4, Staphylococcus aureus RNAP (Staphylococcus aureus, UniProt P47768+Q2G0N5); assay: biochemical
# T4 construct: made in house
# E. coli RNAP holoenzyme [5] = target: T5, E. coli RNAP holoenzyme (Escherichia coli, UniProt P0A8T7+P0A8V2); format: biochemical; settings: 0.5 μM GE or 2.2 μM Rif; ApA primer and UTP
# E. coli RNAP core enzyme = target: T6, E. coli RNAP core enzyme (Escherichia coli, UniProt P0A8T7+P0A8V2); format: biochemical; settings: 0.5 μM GE
# T6 construct: purchased Epicentre, Madison, WI
# [6] = target: T7, Mycobacterium tuberculosis RNAP (Mycobacterium tuberculosis, UniProt P9WGY7+P9WGY9); assay: biochemical
# T7 construct: made in house
# [Asp565]β-RNAP = [Asp565]β-RNAP (Escherichia coli, UniProt P0A8T7+P0A8V2, E565D); assay: Fluorescence-detected RNAP-Rif interaction assay, GE-resistant RNAP; format: binding
# Experimental: as §1
# (§3) For determination of association kinetics, 720 μl 2 nM [F^517]σ^70-RNAP holoenzyme and 0-2 μM GE in 40 mM Tris–HCl, pH 8.0, 100 mM NaCl, 10 mM MgCl2, 1 mM DTT, 0.02% Tween-20, and 5% glycerol was incubated 15 min at 24°C and then mixed with 30 μl 0.01–0.5 μM Rif in the same buffer at 24°C in a cuvette chamber with a mixing dead time ∼0.5 s, and fluorescence emission intensities were monitored for 30 min at 24°C. […]
# as §2
# [Lys684]β-RNAP [7] = target: T1, [Lys684]β-RNAP; assay: as above; format: binding
# Experimental: as §1, §3, §2
# [8] = system: Streptococcus pyogenes ATCC 12344; assay: Antibacterial activity, MIC by broth microdilution; format: cell-based; settings: ATCC12344
# Source text: (§4) Minimum inhibitory concentrations (MICs) were quantified using broth microdilution assays ([Clinical and Laboratory Standards Institute, 2009]), using a starting cell density of 3 × 10^4 cfu/ml, LB broth ([Sambrook and Russell, 2001]), and an air atmosphere for E. coli D21f2tolC (tolC:Tn10 rfa lac28 proA23 trp30 his51 rpsL173 ampC tsx81; strain with cell-envelope defects resulting in increased susceptibility to hydrophobic agents, including GE; Fralick and Burns-Keliher, 1994; unpublished data), and using a starting cell density of 3 × 10^4 cfu/ml, Bacto Todd Hewitt broth (TH broth; BD Biosciences, San Jose, CA), and a 7% CO2/6% O2/4% H2/83% N2 atmosphere for S. pyogenes and M. catarrhalis.
# [9] = system: Moraxella catarrhalis ATCC 25238; assay: Antibacterial activity, MIC by broth microdilution; format: cell-based; settings: ATCC25238
# Source text: as §4
# [10] = system: Escherichia coli D21f2tolC; assay: Antibacterial activity, MIC by broth microdilution; format: cell-based; settings: starting cell density 3 × 10^4 cfu/ml
# Source text: as §4
# Human RNAP I / II / III = assay: Radiochemical assay with human RNAP I/II/III (HeLa nuclear extract); format: biochemical
# Experimental: Radiochemical assays with human RNAP I/II/III were performed essentially as in [Sawadogo and Roeder (1985)]. Reaction mixtures contained (20 µl): 0–100 µM GE, 8 U HeLaScribe Nuclear Extract (Promega, Madison, WI), 1 µg human placental DNA (Sigma–Aldrich), 400 μM ATP, 400 μM [α^32P]UTP (0.11 Bq/fmol), 400 μM CTP, 400 μM GTP, 50 mM Tris–HCl, pH 8.0, 7 mM HEPES-NaOH, 70 mM (NH4)2SO4, 50 mM KCl, 12 mM MgCl2, 5 mM DTT, 0.1 mM EDTA, 0.08 mM phenylmethylsulfonyl fluoride, and 16% glycerol. Reaction components other than DNA and NTPs were pre-incubated 10 min at 30°C, DNA was added and reaction mixtures were incubated 15 min at 30°C, NTPs were added and reaction mixtures were incubated 60 min at 30°C. Reaction mixtures were spotted on DE81 filter discs (Whatman, Kent, UK; pre-wetted with water) and incubated 1 min at room temperature. Filters were washed with 3 × 3 ml Na2HPO4, 2 × 3 ml water, and 3 ml ethanol, using a filter manifold (Hoefer, Holliston, MA). Filters were placed in scintillation vials containing 10 ml Scintiverse BD Cocktail (Thermo Fisher, Waltham, MA), and radioactivity was quantified by scintillation counting (LS6500; Beckman–Coulter, Brea, CA).
# Half-maximal inhibitory concentrations (IC50s) were calculated by non-linear regression in SigmaPlot (SPSS, Chicago, IL).
# E. coli D21f2tolC = assay: Resistance and cross-resistance levels, rpoB mutants from saturation mutagenesis (plasmid-borne), broth microdilution; format: cell-based, Escherichia coli
# E. coli RNAP holoenzyme [11] = target: T5, E. coli RNAP holoenzyme; format: biochemical; settings: 0.5 μM GE or 2.2 μM Rif; lacUV5(ICAP) promoter
# E. coli RNAP holoenzyme [12] = target: T5, E. coli RNAP holoenzyme; format: biochemical; settings: halted TEC containing 29 nt RNA product
# Escherichia coli RNAP = Escherichia coli RNAP (Escherichia coli, UniProt P0A8T7+P0A8V2); assay: biochemical; format: biochemical; settings: wild-type E. coli RNAP
# E. coli RNAP holoenzyme [13] = target: T5, E. coli RNAP holoenzyme; format: biochemical; settings: 0.5 μM GE; T7 A1 promoter
structure (smiles),measurement,setting,value
"CC=C(C)C(=O)NCC1NC(=O)C(C(=O)O)NC(=O)C(O)CNC(=O)C(C(C)O)NC(=O)C(C(O)C(O)C(N)=O)NC(=O)C(C(C)C)NC(=O)C(CO)NC1=O (stereo not shown) [GE, GE23077]",MICwild-type,,500 µg/mL
same,resistance level (MIC/MICwild-type),S. pyogenes; S. pyogenes rpoB 565 [525] Glu→Gly,32
same,resistance level (MIC/MICwild-type),S. pyogenes; S. pyogenes rpoB 565 [525] Glu→Val,32
same,resistance level (MIC/MICwild-type),S. pyogenes; S. pyogenes rpoB 681 [643] Met→Lys,16
same,resistance level (MIC/MICwild-type),S. pyogenes; S. pyogenes rpoB 684 [646] Asn→Ile,>32
same,MICwild-type,S. pyogenes; wild-type S. pyogenes,250 µg/mL
same,IC50,[Lys684]β-RNAP [1],> 400000 nM
same,fold decrease of kon for Rif by GE,[2]; saturating GE,~20 fold
same,fold increase of Kd for Rif by GE,[2]; saturating GE,~80 fold
same,fold increase of koff for Rif by GE,[2]; saturating GE,fourfold
same,Ki,"[2]; wild-type RNAP, 24°C, read-out: Ki,GE, equilibrium dissociation constant for inhibition of RNAP-Rif interaction by GE",6 nM
same,IC50,[3],20000 nM
same,IC50,[4],20 nM
same,"inhibition of first nucleotide addition, primer-dependent transcription initiation",E. coli RNAP holoenzyme [5],inhibits the first nucleotide-addition step
same,"inhibition of single nucleotide addition, reconstituted elongation complex",E. coli RNAP core enzyme,does not inhibit single nucleotide addition
same,IC50,[6],100 nM
same,Ki,[Asp565]β-RNAP,> 2000 nM
same,Ki,[Lys684]β-RNAP [7],> 2000 nM
same,MIC,[8],250 µg/mL
same,MIC,[9],25 µg/mL
same,MIC,[10],250 µg/mL
same,IC50,Human RNAP I / II / III,> 50000 nM
same,cross-resistance of Rif^R mutants to GE,E. coli D21f2tolC; Rif^R mutants,do not exhibit cross-resistance
same,"resistance, fold higher MIC, all six GE^R substitutions",E. coli D21f2tolC; all six GE^R substitutions,≥ fourfold
same,inhibition of formation of RNAP-promoter open complex (RPo),E. coli RNAP holoenzyme [11],does not inhibit
same,"inhibition of nucleotide addition in transcription elongation, halted elongation complex",E. coli RNAP holoenzyme [12],does not inhibit transcription elongation
same,IC50,Escherichia coli RNAP,20 nM
same,"inhibition of first nucleotide addition, de novo transcription initiation",E. coli RNAP holoenzyme [13],inhibits the first nucleotide-addition step
